Measurements published in ChEMBL document CHEMBL1142630, “The application of HPLC with on-line coupled UV/MS-biochemical detection for isolation of an acetylcholinesterase inhibitor from narcissus 'Sir Winston Churchill'” (J Nat Prod, 2000).

Target: Acetylcholinesterase (Homo sapiens, UniProt P22303)
Assay: Inhibition of AChE by microplate assay

Sequence of Acetylcholinesterase (P22303 whole entry): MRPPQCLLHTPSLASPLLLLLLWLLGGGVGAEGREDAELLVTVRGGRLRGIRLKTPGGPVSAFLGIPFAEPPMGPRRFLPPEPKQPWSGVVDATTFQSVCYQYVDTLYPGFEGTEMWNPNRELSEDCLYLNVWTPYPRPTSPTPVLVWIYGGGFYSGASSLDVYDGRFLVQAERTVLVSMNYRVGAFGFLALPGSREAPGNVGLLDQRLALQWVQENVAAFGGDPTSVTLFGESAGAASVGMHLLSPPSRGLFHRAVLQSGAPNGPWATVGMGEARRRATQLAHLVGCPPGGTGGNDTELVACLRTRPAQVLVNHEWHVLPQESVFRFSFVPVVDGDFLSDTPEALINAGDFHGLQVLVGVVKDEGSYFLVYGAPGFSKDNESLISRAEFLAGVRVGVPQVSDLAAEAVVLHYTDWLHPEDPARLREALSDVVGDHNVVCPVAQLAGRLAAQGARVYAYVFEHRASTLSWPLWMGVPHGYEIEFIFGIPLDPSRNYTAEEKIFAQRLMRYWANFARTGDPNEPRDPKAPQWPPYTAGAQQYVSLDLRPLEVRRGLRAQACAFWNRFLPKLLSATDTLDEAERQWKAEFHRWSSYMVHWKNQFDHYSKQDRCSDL

Structure (SMILES): CO[C@@H]1[C@@H](O)[C@H]2c3cc4c(cc3CN3CC=C([C@H]1O)[C@H]23)OCO4 [UNGIMINORINE]
- IC50: 86 µM
